Results as given in ChEMBL document CHEMBL3108681, “Inhibitors of Tropomyosin-Receptor Kinases (Trk's): Potential Pain Therapy and More” (ACS Med Chem Lett, 2014).

Target: High affinity nerve growth factor receptor (Homo sapiens, UniProt P04629)
Assay: Inhibition of TrkA (unknown origin) using fluorescently labeled peptide substrate after 3 hrs

Chain of High affinity nerve growth factor receptor (P04629 whole entry): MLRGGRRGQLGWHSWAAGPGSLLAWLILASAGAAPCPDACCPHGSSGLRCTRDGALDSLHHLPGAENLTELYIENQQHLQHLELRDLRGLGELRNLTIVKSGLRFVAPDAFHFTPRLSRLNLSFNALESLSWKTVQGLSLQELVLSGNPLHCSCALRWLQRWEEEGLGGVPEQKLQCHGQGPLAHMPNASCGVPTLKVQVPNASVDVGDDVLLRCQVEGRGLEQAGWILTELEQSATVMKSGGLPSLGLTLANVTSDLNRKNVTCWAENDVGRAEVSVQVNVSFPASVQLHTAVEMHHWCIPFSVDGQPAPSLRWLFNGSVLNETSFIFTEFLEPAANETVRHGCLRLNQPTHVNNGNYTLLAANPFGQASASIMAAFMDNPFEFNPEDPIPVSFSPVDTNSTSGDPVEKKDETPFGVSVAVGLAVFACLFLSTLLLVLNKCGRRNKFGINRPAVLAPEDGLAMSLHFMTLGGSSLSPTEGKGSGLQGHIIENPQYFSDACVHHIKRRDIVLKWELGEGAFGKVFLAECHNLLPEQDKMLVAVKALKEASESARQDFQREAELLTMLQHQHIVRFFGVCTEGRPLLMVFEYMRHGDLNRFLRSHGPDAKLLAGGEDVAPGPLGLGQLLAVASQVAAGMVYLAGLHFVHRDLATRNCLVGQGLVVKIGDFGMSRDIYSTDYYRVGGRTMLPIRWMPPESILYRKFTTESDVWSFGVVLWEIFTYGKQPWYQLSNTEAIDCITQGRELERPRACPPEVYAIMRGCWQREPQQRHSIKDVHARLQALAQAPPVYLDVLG

SMILES | EC50 [nM]
CC1(C)CN(c2ccc(OC(F)(F)F)cc2)C(=O)N1Cc1cccc(-c2nccs2)c1 | 1010
CC(C)N(Cc1c[nH]c2ncccc12)C(=O)Nc1ccc(OC(F)(F)F)cc1 | 11.3
CC(C)N(Cc1c[nH]c2ncccc12)C(=O)Nc1ccc(SC(F)(F)F)cc1 | 6.5
